{
  "source": "patent US20150038694A1",
  "about": "“GLUCOSE D[…] TO ARSENIC FOR USE IN THE TREATMENT OF TUMOUR” (XENUS SRL, priority 2012, published 2015)",
  "key": {"[1]": {"test_system": "cellular line of human promyelokytic leukemia (HL60)", "test": "MTT test (reduction of tetrazolium salts) on human promyelokytic leukemia cells", "assay_type": "cell-based", "details": "increasing concentrations", "procedure": "(§1) The compound GD152.186 (PM 449,4) produced by means of above mentioned synthesis process, has been tested in a series of preclinical testing on cellular lines of human tumors, and in particular on a cellular line of human neuroblastoma (SK-N-BE) and on a cellular line of human promyelokytic leukemia (HL60).\nInstead, the HL60 cells grow in suspension at a temperature of 37° C. and in 5% CO2, and the culture medium used is RPMI 1640 with 10% FBS (fetal bovine serum), 1% L-Glutamine and 1% Penicillin/Streptomycin antibiotics.\n(§2) As a positive control, arsenic trioxide (As2O3, Sigma-Aldrich) has been used, as its activity has already been tested on cellular lines of human neuroblastoma and human promyelokytic leukemia.\n(§3) The compound GD152.186 has been dissolved in sterile water so as to reach the final concentrations of 100-300-500-1000-2000 μM.\n(§4) The test used for evaluating the persistence of tumor cells after the contact with said compound GD152.186 is the MTT test (reduction of tetrazolium salts).\nSaid test is based on the ability of the mitochondrial respiratory enzyme of the cells, usually called succinate tetrazolium reductase, of reducing a tetrazolium salt (3-[4,5-dimethylthiazol-2-yl]-2,5-diphenyltetrazolium bromide (MTT, Sigma Aldrich)) into an insoluble compound of blue colour, usually called formazan. […]"}, "[2]": {"test_system": "cellular line of human neuroblastoma (SK-N-BE)", "test": "MTT test (reduction of tetrazolium salts) on human neuroblastoma cells", "assay_type": "cell-based", "details": "for reduction of the cell survival (formazan absorbance data): final concentrations 10-30-50-100 and 200 μM, forty-eight, seventy-two and ninety-six hours, absorbance at 570 nm; for morphologic changes visible with an optical microscope (loss of adherence to the plate, roundish shape with irregular outlines): treated cells", "description": "as §1\nThe culture medium used for growing the SK-N-BE cells is DMEM High Glucose (Dulbecco's Modified Eagle Medium) with 10% FBS (fetal bovine serum), 1% L-Glutamine and 1% Penicillin/Streptomycin antibiotics.\nas §2, §3, §4\nSaid test is based on the ability of the mitochondrial respiratory enzyme of the cells, usually called succinate tetrazolium reductase, of reducing a tetrazolium salt (3-[4,5-dimethylthiazol-2-yl]-2,5-diphenyltetrazolium bromide (MTT, Sigma Aldrich)) into an insoluble compound of blue colour, usually called formazan.\nSaid reduction process occurs only in living cells and not in dead or damaged ones, consequently, the amount of formazan produced is directly proportional to the number of cells metabolically active in the tested sample.\n96-well plates have been used for performing the tests, wherein in each well 5.000 (SK-N-BE) cells or 50.000 (HL60) cells have been sown, suspended in 180 μL of medium and then incubated at 37° C. and 5% CO2.\nForty-eight hours later, the cells have been treated with 20 μL of growing concentrations (in six replicates) of arsenic trioxide (100-300-500-1000 μM) and of GD152.186 compound (100-300-500-1000-2000 μM), so as to obtain inside each single well the final concentrations of 10-30-50-100 and 200 μM.\nTo one six-well column no compound is added but only 20 μL of sterile water, for following the natural growth of the cells.\nThe plates are incubated again for forty-eight, seventy-two and ninety-six hours, at the end thereof the test is performed.\nTo each single well 20 μL of MTT solution (5 mg·m-1 in sterile […]) have been added, giving an incubation time of three hours, functional to the formation of formazan.\nThen, the supernatant is removed from each well and 200 μL of DMSO are added.\nAfter about ten minutes the concentration level of formazan has been taken by means of a spectrophotometer set at a wave length of 570 nm."}},
  "note": "“Also recorded” adds a separate entry of the source.",
  "data": [
    {"molecule": "OC[C@H]1O[C@H](CCNc2ccc([As]3SCCS3)cc2)[C@H](O)[C@@H](O)[C@@H]1O", "note": "[GD152.186]", "values": [
      {"measurement": "reduction of the cell survival (formazan absorbance data), HL60 cells", "setting": "[1]", "result": "reduction of the cell survival"},
      {"measurement": "reduction of the cell survival (formazan absorbance data)", "setting": "[2]", "result": "reduction of the cell survival is directly depending on the dosage of the GD152.186 compound and on the time of exposure; also recorded: most visible when the cells have come into contact with high concentrations (100-200 μM)"},
      {"measurement": "morphologic changes visible with an optical microscope (loss of adherence to the plate, roundish shape with irregular outlines)", "setting": "[2]", "result": "morphologic changes have been surprisingly detected"}
    ]},
    {"molecule": "arsenic trioxide [reference compound]", "values": [
      {"measurement": "reduction of the cell survival (formazan absorbance data), HL60 cells", "setting": "[1]", "result": "reduction of the cell survival"},
      {"measurement": "reduction of the cell survival (formazan absorbance data)", "setting": "[2]", "result": "reduction of the cell survival is strictly dependent on the arsenic trioxide dosage and on the time of exposure"},
      {"measurement": "morphologic changes visible with an optical microscope (loss of adherence to the plate, roundish shape with irregular outlines)", "setting": "[2]", "result": "morphologic changes have been found"}
    ]}
  ]
}
